Inconclusive results are not listed. Calls of active or inactive are those of the source. No rule for the calls is given here.

Assay [1] in a line: mouse embryonic fibroblast toxicity – cell-based, plate reader, dry powder, set 2, cytotoxicity control, dose response (AID 652280). The following applies: NIH/3T3 mouse fibroblast toxicity, plate reader; at 16 µM (top of the series).
The subject of assay [2] is NIH/3T3 mouse fibroblast toxicity, plate reader. Described as above.

In the case of `CCC(=O)N1CC[C@@H]2[C@H]1c1cc(Br)ccc1N(C)[C@@H]2CO`, the activity change, negative = toxicity in assay [1] was -1.86% (inactive). On to `CN(C)CC(=O)N1CCCCN2[C@@H](CO)[C@H](c3ccc(-c4cccnc4)cc3)[C@@H]2C1`, for which the activity change, negative = toxicity in assay [1] is 0.846% (inactive). Still for that read-out and setting: to `CC(C)N1CC2(CN(Cc3ccc(F)c(F)c3)C2)Oc2c(NC(=O)c3ccncc3)cccc2C1=O` belongs -3.93% (inactive); to `CC(C)N1C[C@@H](CN(C)Cc2ccc(Cl)cc2)Oc2c(NC(=O)c3ccnnc3)cccc2C1=O`, 2.62% (inactive). Still for that read-out and setting: for `CC(C)N1C[C@@H](CN)Oc2c(NC(=O)c3ccncc3)cccc2C1=O` the value was 22.7% (inactive); for `CC(C)(C)S(=O)N1Cc2cc(C(=O)NCc3ccc4c(c3)OCO4)nc(-c3cccc(-c4cccc(F)c4)c3)c2[C@@H]1CCO` (stereo partly drawn), -21.2% (inactive). The same measure, in the same setting: to `CN(C)CC#Cc1cccc(-c2nc(C(=O)N3CCN(Cc4ccccc4)CC3)cc3c2[C@H](CCO)N(S(=O)C(C)(C)C)C3)c1` (stereo partly drawn) belongs -3.09% (inactive); to `CN(C)C(=O)c1ccc(-c2ccc([C@H]3[C@H](CO)N4CCCCN(Cc5cncnc5)C[C@@H]34)cc2)cc1`, 10.1% (inactive). As to `CC(C)N1C[C@H](C)[C@@H](CN(C)Cc2ccc(Cl)c(Cl)c2)Oc2c(cccc2-c2nn[nH]n2)C1=O`, the activity change, negative = toxicity in assay [1] is -0.771% (inactive). The same measure, in the same setting: for `CC(C)N1C(=O)c2cccc(NC(=O)c3ccncc3)c2O[C@H](CN(C)Cc2ccc(Cl)cc2)[C@H]1C` the value was -1.14% (inactive); for `C[C@@H]1CN([C@@H](C)CO)C(=O)c2cccc(NC(=O)c3ccncc3)c2O[C@H]1CN(C)C`, -10.2% (inactive). The same measure, in the same setting: for `CC(C)(C)[S@@](=O)N1Cc2cc(C(=O)NCc3ccc4c(c3)OCO4)nc(-c3cccc(-c4ccccc4)c3)c2[C@H]1CCO` the value was 14.4% (inactive). Turning to `O=C(Cc1ccccn1)N1CCCCN2[C@@H](CO)[C@H](c3ccc(Br)cc3)[C@@H]2C1`, the activity change, negative = toxicity in assay [1] was 9.05% (inactive). Take `Cc1ccccc1-c1ccc([C@H]2[C@H](CO)N3CCCCN(C(=O)c4cccnc4)C[C@@H]23)cc1`: the activity change, negative = toxicity in assay [1] was -15% (inactive). Still for that read-out and setting: to `C[C@@H]1CCCCO[C@H](CN(C)C(=O)Nc2cccc3ccccc23)[C@@H](C)CN([C@H](C)CO)C(=O)c2cc(N(C)C)ccc2O1` belongs -0.649% (inactive); to `C[C@H]1CN([C@@H](C)CO)C(=O)c2cccc(NC(=O)c3ccncc3)c2O[C@@H]1CN(C)Cc1ccc(F)c(Cl)c1`, -32.5% (inactive). For the compound `CC(C)(C)S(=O)N1Cc2cc(C(=O)NCc3ccc4c(c3)OCO4)nc(-c3cccc(-c4cccc(F)c4)c3)c2[C@H]1CCO` (stereo partly drawn), in assay [1], the activity change, negative = toxicity was 12.7% (inactive). Still for that read-out and setting: to `CC(C)N1C[C@@H](C)[C@H](CN(C)C(=O)OC(C)(C)C)Oc2c(C(=O)O)cccc2C1=O` belongs 14.1% (inactive); to `CC(C)N1CC[C@H](CN(C)Cc2ccc(Oc3ccccc3)cc2)Oc2c(NC(=O)c3ccncc3)cccc2C1=O`, -22.1% (inactive); to `CN(C)C(=O)c1cccc(-c2ccc([C@H]3[C@H]4CN(C(=O)C5CCC5)CCCCN4[C@H]3CO)cc2)c1`, 24.3% (inactive). On the same count and under the same terms, for `CC(C)N1CC2(CN(Cc3ccccc3F)C2)Oc2c(NC(=O)c3ccncc3)cccc2C1=O` the value was 6.11% (inactive); for `O=C(Cn1ccnc1[N+](=O)[O-])NCc1ccccc1`, 17.4% (inactive); for `COc1ccc(CCN(C)C(=O)C2CCCN(Cc3ccc(OC)c(OC)c3)C2)cc1OC` (stereo not drawn), 6.14% (inactive).

As to `CC(C)(C)S(=O)N1Cc2cc(C(=O)NCc3ccc4c(c3)OCO4)nc(-c3cccc(-c4cc5ccccc5o4)c3)c2[C@H]1CCO` (stereo partly drawn), the activity change, negative = toxicity in assay [1] is -5.85% (inactive). Same read-out and setting: for `CC(C)N1C[C@@H](C)[C@H](CN(C)Cc2ccc(Oc3ccccc3)cc2)Oc2c(cccc2N(C)C(=O)c2ccncc2)C1=O` the value was -4.89% (inactive); for `CC(C)N1CC2(CN(CC3CCCCC3)C2)Oc2c(NC(=O)c3ccncc3)cccc2C1=O`, 9.84% (inactive); for `CC(C)N1C[C@H](C)[C@@H](CN(C)Cc2ccc(Cl)cc2)Oc2c(cccc2-c2nnn(-c3ccncc3)n2)C1=O`, 65.7% (inactive). Still for that read-out and setting: to `CN(C)C(=O)c1cccc(-c2ccc([C@H]3[C@H](CO)N4CCCCN(Cc5cccnc5)C[C@@H]34)cc2)c1` belongs -3% (inactive); to `CN(C)C(=O)c1cccc(-c2ccc([C@H]3[C@H](CO)N4CCCCN(C(=O)C5CCC5)C[C@@H]34)cc2)c1`, 11.8% (inactive); to `CC(C)N1CC2(CN(Cc3ccccn3)C2)Oc2c(NC(=O)c3ccncc3)cccc2C1=O`, -3.3% (inactive).

For `C[C@H]1CN([C@@H](C)CO)C(=O)c2cccc(NC(=O)c3ccncc3)c2O[C@@H]1CN(C)Cc1ccc(Oc2ccccc2)cc1`, the activity change, negative = toxicity in assay [1] was 12.9% (inactive).

`O=C(CN1CCOCC1)N1CCCCN2[C@@H](CO)[C@H](c3ccc(Br)cc3)[C@@H]2C1`: in assay [1], the activity change, negative = toxicity is 2.42% (inactive).

`C[C@@H]1CN([C@@H](C)CO)C(=O)c2cccc(NC(=O)c3ccncc3)c2O[C@@H]1CN(C)Cc1ccc(Oc2ccccc2)cc1`: in assay [1], the activity change, negative = toxicity is 15.4% (inactive). Same read-out and setting: to `C[C@H]1CN([C@@H](C)CO)C(=O)c2cccc(NC(=O)c3ccncc3)c2O[C@@H]1CN(C)Cc1cccc(C(F)(F)F)c1` belongs -10.7% (inactive); to `CC(C)N1C[C@H](CNCc2ccc(Oc3ccccc3)cc2)Oc2c(NC(=O)c3ccncc3)cccc2C1=O`, 5.88% (inactive).

Consider `CC(C)N1C[C@@H](C)[C@H](CN(C)C(=O)OC(C)(C)C)Oc2c(C(N)=O)cccc2C1=O`, for which the activity change, negative = toxicity in assay [1] is 12.8% (inactive). `CN(C)CC#Cc1cccc(-c2nc(C(=O)NCc3ccc(Oc4ccccc4)cc3)cc3c2[C@@H](CCO)N(S(=O)C(C)(C)C)C3)c1` (stereo partly drawn): the activity change, negative = toxicity in assay [1] is 31.3% (inactive). Same read-out and setting: to `CN(C)C(=O)c1ccc(-c2ccc([C@H]3[C@H](CO)N4CCCCN(C(=O)C5CCCC5)C[C@@H]34)cc2)cc1` belongs -15.7% (inactive); to `CN(C)CC#Cc1cccc(-c2nc(C(=O)NCc3ccc4c(c3)OCO4)cc3c2[C@@H](CCO)N(S(=O)C(C)(C)C)C3)c1` (stereo partly drawn), 0.74% (inactive). Take `C[C@H]1CN([C@@H](C)CO)C(=O)c2cccc(NC(=O)c3ccncc3)c2O[C@@H]1CN(C)Cc1ccc(Cl)c(F)c1`: the activity change, negative = toxicity in assay [1] was -25.3% (inactive). Same read-out and setting: for `Cc1ccc(CN(C)C[C@H]2Oc3c(NC(=O)c4ccncc4)cccc3C(=O)N([C@@H](C)CO)C[C@@H]2C)cc1` the value was -16.5% (inactive). Still for that read-out and setting: for `CC(c1ccc(Cl)cc1)N1CC2(C1)CN(C(C)C)C(=O)c1cccc(NC(=O)c3ccncc3)c1O2` (stereo not drawn) the value was 6.05% (inactive); for `CC(C)N1CC2(CN(Cc3ccc(-c4cccnc4)cc3)C2)Oc2c(NC(=O)c3ccncc3)cccc2C1=O`, -22.8% (inactive).

In the case of `CC(C)N1C[C@H](CN(C)Cc2ccc(Cl)cc2)Oc2c(NC(=O)c3ccnnc3)cccc2C1=O`, the activity change, negative = toxicity in assay [1] is 3.72% (inactive). Still for that read-out and setting: to `CN(C)CC#Cc1cccc(-c2nc(C(=O)N3CCN(C)CC3)cc3c2[C@H](CCO)N(S(=O)C(C)(C)C)C3)c1` (stereo partly drawn) belongs 16.4% (inactive); to `CC(C)N1C[C@@H](CN(C)Cc2ccc(Cl)cc2)Oc2c(NC(=O)c3ccccc3)cccc2C1=O`, 9.38% (inactive). One may read the AC50 as the midpoint of the concentration-response curve, whichever way the signal moves. For the compound `C[C@@H]1CN([C@@H](C)CO)C(=O)c2cccc(NC(=O)c3ccncc3)c2O[C@H]1CN(C)Cc1ccc(Oc2ccccc2)cc1`, the AC50 in assay [2] was 3.31 µM. In the case of `CC(C)N1C[C@@H](C)[C@H](CN(C)C(=O)OC(C)(C)C)Oc2c(C#N)cccc2C1=O`, the activity change, negative = toxicity in assay [1] was -6.53% (inactive). On the same count and under the same terms, to `CN(C)C(=O)c1cccc(-c2ccc([C@@H]3[C@H]4CN(C(=O)C5CCC5)CCCCN4[C@H]3CO)cc2)c1` belongs 5.4% (inactive); to `CN(C)C(=O)c1ccc(-c2ccc([C@H]3[C@H](CO)N4CCCCN(CC5CC5)C[C@@H]34)cc2)cc1`, 24.4% (inactive); to `Cc1cccc(CN(C)C[C@H]2Oc3c(NC(=O)c4ccncc4)cccc3C(=O)N([C@@H](C)CO)C[C@@H]2C)c1`, -19.1% (inactive). As to `C[C@@H]1CN([C@@H](C)CO)C(=O)c2cc(-c3cncnc3)cnc2O[C@H]1CN(C)Cc1ccc(Oc2ccccc2)cc1`, the activity change, negative = toxicity in assay [1] is -26.5% (inactive). On the same count and under the same terms, to `CN(C)C(=O)c1cccc(-c2ccc([C@@H]3[C@H](CO)N4CCCCN(C(=O)C5CCC5)C[C@@H]34)cc2)c1` belongs -3.74% (inactive); to `C[C@@H]1CN([C@@H](C)CO)C(=O)c2cc(Br)cnc2O[C@H]1CN(C)Cc1ccc2c(c1)OCO2`, -12% (inactive); to `C[C@@H](CO)N1CC[C@H](CNC(=O)OC(C)(C)C)Oc2c(NC(=O)c3ccncc3)cccc2C1=O`, 2.74% (inactive). Regarding `CC(C)N1CC[C@@H](CNC(=O)OC(C)(C)C)Oc2c(NC(=O)c3ccncc3)cccc2C1=O`, in assay [1], the activity change, negative = toxicity is -8.28% (inactive).

With `C[C@H]1CN([C@@H](C)CO)C(=O)c2cccc(NC(=O)c3ccncc3)c2O[C@@H]1CN(C)Cc1cc(Cl)ccc1Cl`, in assay [1], the activity change, negative = toxicity was 3.82% (inactive). Consider `CN(C)CC#Cc1cccc(-c2nc(C(=O)NCc3ccc(Oc4ccccc4)cc3)cc3c2[C@H](CCO)N(S(=O)C(C)(C)C)C3)c1` (stereo partly drawn), for which the activity change, negative = toxicity in assay [1] is 63.9% (inactive).

Source of the values: PubChem BioAssay AID652280 (Broad Institute, 2013).
